Data from paper PMC3794980, “Identification of Conserved and HLA Promiscuous DENV3 T-Cell Epitopes” (PLoS Neglected Tropical Diseases, 2013).
Where no end group is shown, it is not given here.

Key:
Test in all cases: biochemical
Assay type in all cases: binding
DRB3*0101 = DRB3*0101 (Homo sapiens, UniProt P01903+P79483)
DRB4*0101 = DRB4*0101 (Homo sapiens, UniProt P01903+P13762, G164S)
DRB5*0101 = DRB5*0101 (Homo sapiens, UniProt P01903+Q30154)

| Compound | IC50 (DRB3*0101) [nM] | IC50 (DRB4*0101) [nM] | IC50 (DRB5*0101) [µM] |
| --- | --- | --- | --- |
| CC[C@H](C)[C@H](NC(=O)[C@H](CCC(N)=O)NC(=O)[C@@H](N)CCCCN)C(=O)N[C@@H](C)C(=O)N[C@@H](CC(N)=O)C(=O)N[C@@H](CCC(=O)O)C(=O)N[C@@H](CC(C)C)C(=O)N[C@@H](CC(N)=O)C(=O)N[C@@H](Cc1ccc(O)cc1)C(=O)N[C@H](C(=O)N[C@@H](CC(C)C)C(=O)N[C@@H](Cc1c[nH]c2ccccc12)C(=O)N[C@@H](CCC(=O)O)C(=O)N[C@@H](CC(N)=O)C(=O)N[C@@H](CC(N)=O)C(=O)O)[C@@H](C)CC [NS1 69-83] | 50 | 608 | 2.38 |
| CC[C@H](C)[C@H](NC(=O)[C@@H](NC(=O)[C@H](CC(=O)O)NC(=O)[C@H](CCSC)NC(=O)[C@@H](NC(=O)[C@@H](NC(=O)CNC(=O)[C@H](CCCCN)NC(=O)[C@@H]1CCCN1C(=O)[C@@H](NC(=O)[C@@H]1CCCN1C(=O)[C@H](CCCNC(=N)N)NC(=O)[C@H](CCC(N)=O)NC(=O)[C@@H](NC(=O)[C@H](CCCCN)NC(=O)[C@@H](NC(=O)[C@@H](N)C(C)C)C(C)C)C(C)C)[C@@H](C)O)[C@@H](C)O)C(C)C)[C@@H](C)CC)C(=O)O [NS5 576-592] | 2910 | 108 | 0.084 |
| CC[C@H](C)[C@H](N)C(=O)N[C@H](C(=O)N[C@H](C(=O)NCC(=O)N[C@H](C(=O)NCC(=O)N[C@@H](CC(=O)O)C(=O)N[C@@H](CC(N)=O)C(=O)N[C@@H](C)C(=O)N[C@@H](CC(C)C)C(=O)N[C@@H](CCCCN)C(=O)N[C@H](C(=O)N[C@@H](CC(N)=O)C(=O)N[C@@H](Cc1c[nH]c2ccccc12)C(=O)N[C@@H](Cc1ccc(O)cc1)C(=O)O)[C@@H](C)CC)[C@@H](C)CC)[C@@H](C)CC)C(C)C [Envelope 376-390] | 15 | 1240 | 1.25 |
| MRCVGVGNRDFVEGL [Envelope 1-15] | 2840 | 3770 | 4.83 |
| TNTFVLKKEVSETQH [Envelope 301-315] | 2830 | 2190 | 4.89 |
| CC(C)C[C@H](NC(=O)[C@H](CCCCN)NC(=O)[C@@H](NC(=O)[C@H](CCCCN)NC(=O)[C@H](CCC(N)=O)NC(=O)[C@H](Cc1ccc(O)cc1)NC(=O)[C@H](CCC(=O)O)NC(=O)[C@@H](NC(=O)[C@H](CC(=O)O)NC(=O)[C@H](Cc1ccccc1)NC(=O)[C@@H](NC(=O)[C@@H](N)CCCCN)[C@@H](C)O)[C@@H](C)O)[C@@H](C)O)C(=O)N[C@@H](CC(N)=O)C(=O)N[C@@H](CC(=O)O)C(=O)N[C@@H](Cc1c[nH]c2ccccc12)C(=O)O [NS3 389-403] | 4530 | 9910 | 2.33 |
| CC[C@H](C)[C@H](NC(=O)[C@H](CS)NC(=O)[C@H](Cc1ccccc1)NC(=O)[C@H](CCC(N)=O)NC(=O)[C@@H](N)CC(N)=O)C(=O)N[C@@H](CCCCN)C(=O)N[C@H](C(=O)N[C@@H](CC(C)C)C(=O)N[C@@H](CC(N)=O)C(=O)N1CCC[C@H]1C(=O)N[C@@H](Cc1ccc(O)cc1)C(=O)N[C@@H](CCSC)C(=O)N1CCC[C@H]1C(=O)N[C@H](C(=O)N[C@H](C(=O)N[C@H](C(=O)N[C@@H](CCC(=O)O)C(=O)O)[C@@H](C)CC)C(C)C)[C@@H](C)O)C(C)C [NS5 175-191] | 1340 | 6640 | 0.722 |
| LGSQEGAMHTALTGA [Envelope 251-265] | 5590 | 7210 | 0.722 |
| CC[C@H](C)[C@H](NC(=O)CNC(=O)[C@@H](NC(=O)[C@@H](NC(=O)[C@@H](NC(=O)[C@H](CC(N)=O)NC(=O)[C@H](CO)NC(=O)[C@H](CCC(=O)O)NC(=O)CNC(=O)[C@H](Cc1ccccc1)NC(=O)[C@@H]1CCCN1C(=O)[C@@H]1CCCN1C(=O)[C@H](CCC(=O)O)NC(=O)[C@H](C)NC(=O)[C@@H](N)CCC(=O)O)[C@@H](C)CC)C(C)C)[C@@H](C)CC)C(=O)O [Envelope 366-380] | 3240 | 3810 | 12.5 |
| ALTGATEIQNSGGTS [Envelope 261-275] | 17500 | 8570 | 3.67 |
| CC[C@H](C)[C@H](NC(=O)[C@H](CC(C)C)NC(=O)[C@H](CCC(=O)O)NC(=O)[C@H](CC(=O)O)NC(=O)[C@H](CCC(N)=O)NC(=O)[C@@H]1CCCN1C(=O)[C@H](CCCNC(=N)N)NC(=O)[C@H](CS)NC(=O)[C@@H]1CCCN1C(=O)[C@@H](NC(=O)[C@@H](NC(=O)[C@H](CC(C)C)NC(=O)[C@H](CCCCN)NC(=O)[C@H](CCCNC(=N)N)NC(=O)CNC(=O)[C@H](CC(=O)O)NC(=O)[C@@H](N)CCCCN)C(C)C)C(C)C)C(=O)O [NS5 719-735] | 5680 | 17800 | 3.44 |
| CC[C@H](C)[C@H](N)C(=O)N[C@@H](CC(=O)O)C(=O)N[C@@H](CC(=O)O)C(=O)N[C@@H](CCCNC(=N)N)C(=O)N[C@@H](Cc1ccccc1)C(=O)N[C@@H](C)C(=O)N[C@@H](CC(N)=O)C(=O)N[C@@H](C)C(=O)N[C@@H](CC(C)C)C(=O)N[C@@H](CC(C)C)C(=O)N[C@@H](C)C(=O)N[C@@H](CC(C)C)C(=O)N[C@@H](CC(N)=O)C(=O)N[C@@H](CC(=O)O)C(=O)N[C@@H](CCSC)C(=O)NCC(=O)N[C@@H](CCCCN)C(=O)O [NS5 670-686] | 7500 | 971 | 0.478 |
| GTILVKVEYKGEDAP [Envelope 316-330] | 5290 | 6030 | 5.26 |
| CC(C)C[C@H](NC(=O)[C@H](CCCCN)NC(=O)CNC(=O)[C@H](CO)NC(=O)[C@@H](NC(=O)[C@@H](NC(=O)[C@@H](NC(=O)[C@@H](NC(=O)[C@H](CCCNC(=N)N)NC(=O)[C@H](CC(C)C)NC(=O)[C@H](CO)NC(=O)[C@@H]1CCCN1C(=O)CNC(=O)[C@H](CCCNC(=N)N)NC(=O)[C@@H](N)[C@@H](C)O)[C@@H](C)O)[C@@H](C)O)[C@@H](C)O)C(C)C)C(=O)O [NS1 293-307] | 2280 | 793 | 2.61 |
| CC[C@H](C)[C@H](NC(=O)[C@H](Cc1ccc(O)cc1)NC(=O)CNC(=O)[C@H](CCCNC(=N)N)NC(=O)[C@H](C)N)C(=O)N[C@@H](CO)C(=O)N[C@H](C(=O)N[C@@H](CCCNC(=N)N)C(=O)N[C@H](C(=O)NCC(=O)N[C@@H](CCSC)C(=O)NCC(=O)N[C@@H](CCC(=O)O)C(=O)N[C@@H](C)C(=O)N[C@@H](C)C(=O)O)C(C)C)[C@@H](C)O [NS3 297-311] | 8650 | 7230 | 3.45 |
| CC[C@H](C)[C@H](NC(=O)[C@H](C)NC(=O)[C@@H](N)CCSC)C(=O)N[C@@H](CO)C(=O)NCC(=O)N[C@@H](CC(=O)O)C(=O)N[C@@H](CC(=O)O)C(=O)N[C@@H](CS)C(=O)N[C@H](C(=O)N[C@H](C(=O)N[C@@H](CCCCN)C(=O)N1CCC[C@H]1C(=O)N[C@H](C(=O)N[C@@H](CC(=O)O)C(=O)N[C@@H](CC(=O)O)C(=O)N[C@@H](CCCNC(=N)N)C(=O)N[C@@H](Cc1ccccc1)C(=O)O)[C@@H](C)CC)C(C)C)C(C)C [NS5 658-674] | 1930 | 19400 | 1.54 |
| AILPEYGTLGLECSP [Envelope 171-185] | 12600 | 787 | 17.2 |
| CC[C@H](C)[C@H](NC(=O)[C@H](CC(C)C)NC(=O)[C@H](CO)NC(=O)CNC(=O)[C@H](CS)NC(=O)[C@H](Cc1c[nH]c2ccccc12)NC(=O)[C@H](CCC(N)=O)NC(=O)[C@H](CC(=O)O)NC(=O)[C@H](CCC(=O)O)NC(=O)[C@H](CCCNC(=N)N)NC(=O)[C@H](CCCCN)NC(=O)CNC(=O)[C@H](CC(C)C)NC(=O)[C@@H](N)Cc1ccc(O)cc1)C(=O)NCC(=O)N[C@@H](CC(C)C)C(=O)N[C@H](C(=O)O)[C@@H](C)O [NS5 838-854] | 79 | 1590 | 15.5 |
| CC[C@H](C)[C@H](NC(=O)[C@@H](N)CCCCN)C(=O)N[C@H](C(=O)N[C@@H](CCC(N)=O)C(=O)N[C@@H](Cc1c[nH]c2ccccc12)C(=O)N[C@@H](CC(C)C)C(=O)N[C@@H](CCC(=O)O)C(=O)N[C@H](C(=O)N[C@@H](CCCCN)C(=O)NCC(=O)N[C@H](C(=O)N[C@@H](CCC(=O)O)C(=O)N[C@@H](CCCNC(=N)N)C(=O)N[C@@H](CC(C)C)C(=O)N[C@@H](CCCCN)C(=O)N[C@@H](CCCNC(=N)N)C(=O)N[C@@H](CCSC)C(=O)O)C(C)C)[C@@H](C)O)[C@@H](C)O [NS5 642-658] | 12200 | 15300 | 0.0051 |
| CC[C@H](C)[C@H](NC(=O)[C@H](C)NC(=O)CNC(=O)[C@@H](NC(=O)[C@H](CCC(=O)O)NC(=O)CN)[C@@H](C)CC)C(=O)N[C@@H](C)C(=O)N[C@@H](CC(C)C)C(=O)N[C@@H](CC(=O)O)C(=O)N[C@@H](Cc1ccccc1)C(=O)N[C@@H](CCCCN)C(=O)N1CCC[C@H]1C(=O)NCC(=O)N[C@H](C(=O)N[C@@H](CO)C(=O)O)[C@@H](C)O [NS3 121-135] | 2210 | 40 | 11.9 |
| CC[C@H](C)[C@H](NC(=O)[C@@H](NC(=O)[C@H](CCCNC(=N)N)NC(=O)[C@H](CCC(=O)O)NC(=O)[C@@H]1CCCN1C(=O)CNC(=O)[C@H](CC(=O)O)NC(=O)[C@@H](NC(=O)[C@H](CC(C)C)NC(=O)[C@@H](NC(=O)[C@@H](NC(=O)[C@@H]1CCCN1C(=O)[C@H](CCCCN)NC(=O)[C@H](CC(C)C)NC(=O)[C@@H](N)CS)C(C)C)[C@@H](C)CC)[C@@H](C)O)C(C)C)C(=O)O [NS3 429-443] | 5.7 | 1210 | 13.2 |
| CC[C@H](C)[C@H](NC(=O)[C@H](C)NC(=O)CNC(=O)[C@@H](NC(=O)[C@H](CCC(=O)O)NC(=O)CNC(=O)[C@@H](NC(=O)[C@@H](NC(=O)[C@@H](NC(=O)[C@H](CCC(N)=O)NC(=O)[C@H](Cc1ccccc1)NC(=O)[C@@H](NC(=O)CNC(=O)[C@@H]1CCCN1)[C@@H](C)O)[C@@H](C)O)[C@@H](C)O)[C@@H](C)O)[C@@H](C)CC)C(=O)N[C@@H](C)C(=O)O [NS3 113-127] | 3070 | 1840 | 2.1 |
